Source: ChEMBL document CHEMBL3797178, “Synthesis, antimycobacterial and antibacterial activity of 1-(6-amino-3,5-difluoropyridin-2-yl)fluoroquinolone derivatives containing an oxime functional moiety” (2016)
Values after ≈ are worked out from the molar mass of the structure shown.

Columns and labels:
Assay type in all cases: functional
[1] = tested on: Staphylococcus epidermidis; test: Antibacterial activity against methicillin-resistant Staphylococcus epidermidis 14-39 after 18 to 24 hrs by CLSI M100-S11 method
Pseudomonas aeruginosa [2] = test: Antibacterial activity against Pseudomonas aeruginosa ATCC 27853 after 18 to 24 hrs by CLSI M100-S11 method
Escherichia coli [3] = test: Antibacterial activity against extended-spectrum beta-lactamase-producing Escherichia coli 14-2 after 18 to 24 hrs by CLSI M100-S11 method
[4] = tested on: Staphylococcus epidermidis; test: Antibacterial activity against methicillin-sensitive Staphylococcus epidermidis 14-6 after 18 to 24 hrs by CLSI M100-S11 method
Enterococcus faecalis [5] = test: Antibacterial activity against Enterococcus faecalis 14-2 after 18 to 24 hrs by CLSI M100-S11 method
Klebsiella pneumoniae [6] = test: Antibacterial activity against Klebsiella pneumoniae 14-2 after 18 to 24 hrs by CLSI M100-S11 method
Escherichia coli [7] = test: Antibacterial activity against Escherichia coli 14-2 after 18 to 24 hrs by CLSI M100-S11 method
Klebsiella pneumoniae [8] = test: Antibacterial activity against Klebsiella pneumoniae 14-4 after 18 to 24 hrs by CLSI M100-S11 method
Pseudomonas aeruginosa [9] = test: Antibacterial activity against Pseudomonas aeruginosa 14-15 after 18 to 24 hrs by CLSI M100-S11 method
Staphylococcus aureus [10] = test: Antibacterial activity against methicillin-sensitive Staphylococcus aureus 14-3 after 18 to 24 hrs by CLSI M100-S11 method
Escherichia coli [11] = test: Antibacterial activity against Escherichia coli ATCC 25922 after 18 to 24 hrs by CLSI M100-S11 method
[12] = tested on: Staphylococcus epidermidis; test: Antibacterial activity against methicillin-sensitive Staphylococcus epidermidis 14-4 after 18 to 24 hrs by CLSI M100-S11 method
Klebsiella pneumoniae [13] = test: Antibacterial activity against extended-spectrum beta-lactamase-producing Klebsiella pneumoniae 14-17 after 18 to 24 hrs by CLSI M100-S11 method
Escherichia coli [14] = test: Antibacterial activity against extended-spectrum beta-lactamase-producing Escherichia coli 14-1 after 18 to 24 hrs by CLSI M100-S11 method
Staphylococcus aureus [15] = test: Antibacterial activity against methicillin-sensitive Staphylococcus aureus 14-2 after 18 to 24 hrs by CLSI M100-S11 method
Staphylococcus aureus [16] = test: Antibacterial activity against methicillin-resistant Staphylococcus aureus 14-5 after 18 to 24 hrs by CLSI M100-S11 method
Enterococcus faecium [17] = test: Antibacterial activity against Enterococcus faecium 14-2 after 18 to 24 hrs by CLSI M100-S11 method
Klebsiella pneumoniae [18] = test: Antibacterial activity against extended-spectrum beta-lactamase-producing Klebsiella pneumoniae 14-18 after 18 to 24 hrs by CLSI M100-S11 method
Staphylococcus aureus [19] = test: Antibacterial activity against methicillin-resistant Staphylococcus aureus 14-4 after 18 to 24 hrs by CLSI M100-S11 method
Klebsiella pneumoniae [20] = test: Antibacterial activity against extended-spectrum beta-lactamase-producing Klebsiella pneumoniae 14-19 after 18 to 24 hrs by CLSI M100-S11 method
Enterococcus faecalis [21] = test: Antibacterial activity against Enterococcus faecalis 14-3 after 18 to 24 hrs by CLSI M100-S11 method
[22] = tested on: Staphylococcus epidermidis; test: Antibacterial activity against methicillin-resistant Staphylococcus epidermidis 14-37 after 18 to 24 hrs by CLSI M100-S11 method
Enterococcus faecalis [23] = test: Antibacterial activity against Enterococcus faecalis 14-1 after 18 to 24 hrs by CLSI M100-S11 method
Pseudomonas aeruginosa [24] = test: Antibacterial activity against Pseudomonas aeruginosa 14-9 after 18 to 24 hrs by CLSI M100-S11 method
Staphylococcus aureus [25] = test: Antibacterial activity against Staphylococcus aureus CMCC 26003 after 18 to 24 hrs by CLSI M100-S11 method
Streptococcus pneumoniae = test: Antibacterial activity against Streptococcus pneumoniae ATCC 19615 after 18 to 24 hrs by CLSI M100-S11 method
Staphylococcus aureus [26] = test: Antibacterial activity against methicillin-sensitive Staphylococcus aureus 14-4 after 18 to 24 hrs by CLSI M100-S11 method
[27] = tested on: Staphylococcus epidermidis; test: Antibacterial activity against methicillin-resistant Staphylococcus epidermidis 14-22 after 18 to 24 hrs by CLSI M100-S11 method
Pseudomonas aeruginosa [28] = test: Antibacterial activity against Pseudomonas aeruginosa 14-16 after 18 to 24 hrs by CLSI M100-S11 method
[29] = tested on: Staphylococcus epidermidis; test: Antibacterial activity against methicillin-sensitive Staphylococcus epidermidis 14-2 after 18 to 24 hrs by CLSI M100-S11 method
[30] = tested on: Mycobacterium tuberculosis; test: Antimycobacterial activity against Mycobacterium tuberculosis H37Rv ATCC 27294 after 3 days by microplate Alamar Blue assay; conditions: H37Rv ATCC 27294, 72 h
Pseudomonas aeruginosa [31] = test: Antibacterial activity against Pseudomonas aeruginosa 14-14 after 18 to 24 hrs by CLSI M100-S11 method
Klebsiella pneumoniae [32] = test: Antibacterial activity against Klebsiella pneumoniae 14-1 after 18 to 24 hrs by CLSI M100-S11 method
Klebsiella pneumoniae [33] = test: Antibacterial activity against Klebsiella pneumoniae 14-3 after 18 to 24 hrs by CLSI M100-S11 method
Enterococcus faecium [34] = test: Antibacterial activity against Enterococcus faecium 14-1 after 18 to 24 hrs by CLSI M100-S11 method
Escherichia coli [35] = test: Antibacterial activity against Escherichia coli 14-1 after 18 to 24 hrs by CLSI M100-S11 method
Pseudomonas aeruginosa [36] = test: Antibacterial activity against Pseudomonas aeruginosa 14-19 after 18 to 24 hrs by CLSI M100-S11 method

For `NC[C@H]1/C(=N/OCc2ccccc2)CN1c1nc2c(cc1F)c(=O)c(C(=O)O)cn2-c1nc(N)c(F)cc1F`, the MIC [1] was > 130 µg/mL, the MIC (Pseudomonas aeruginosa [2]) was 64 µg/mL (≈ 119 µM) and the MIC (Escherichia coli [3]) was > 128 µg/mL. For the same compound, the MIC [4] was > 128 µg/mL, the MIC (Enterococcus faecalis [5]) was > 128 µg/mL and the MIC (Klebsiella pneumoniae [6]) was > 128 µg/mL. The MIC (Escherichia coli [7]) was > 128 µg/mL, the MIC (Klebsiella pneumoniae [8]) was > 128 µg/mL and the MIC (Pseudomonas aeruginosa [9]) was 128 µg/mL (≈ 237 µM). For the same compound, the MIC (Staphylococcus aureus [10]) was 4 µg/mL (≈ 7.41 µM), the MIC (Escherichia coli [11]) was 4 µg/mL (≈ 7.41 µM) and the MIC [12] was > 128 µg/mL. For the same compound, the MIC (Klebsiella pneumoniae [13]) was > 128 µg/mL, the MIC (Escherichia coli [14]) was 64 µg/mL (≈ 119 µM) and the MIC (Staphylococcus aureus [15]) was 2 µg/mL (≈ 3.71 µM). The MIC (Staphylococcus aureus [16]) was > 128 µg/mL, the MIC (Enterococcus faecium [17]) was 32 µg/mL (≈ 59.3 µM) and the MIC (Klebsiella pneumoniae [18]) was 128 µg/mL (≈ 237 µM). For the same compound, the MIC (Staphylococcus aureus [19]) was > 128 µg/mL, the MIC (Klebsiella pneumoniae [20]) was > 128 µg/mL and the MIC (Enterococcus faecalis [21]) was > 128 µg/mL. For the same compound, the MIC [22] was > 128 µg/mL, the MIC (Enterococcus faecalis [23]) was > 128 µg/mL and the MIC (Pseudomonas aeruginosa [24]) was 128 µg/mL (≈ 237 µM). It also gave an MIC (Staphylococcus aureus [25]) of 2 µg/mL (≈ 3.71 µM), an MIC (Streptococcus pneumoniae) of 64 µg/mL (≈ 119 µM) and an MIC (Staphylococcus aureus [26]) of 4 µg/mL (≈ 7.41 µM). The MIC [27] was > 128 µg/mL, the MIC (Pseudomonas aeruginosa [28]) was 128 µg/mL (≈ 237 µM) and the MIC [29] was > 128 µg/mL. For the same compound, the MIC [30] was > 32 µg/mL, the MIC (Pseudomonas aeruginosa [31]) was 128 µg/mL (≈ 237 µM) and the MIC (Klebsiella pneumoniae [32]) was > 128 µg/mL. The MIC (Klebsiella pneumoniae [33]) was > 128 µg/mL, the MIC (Enterococcus faecium [34]) was > 128 µg/mL and the MIC (Escherichia coli [35]) was > 128 µg/mL.

Compound `NCC1CN(c2nc3c(cc2F)c(=O)c(C(=O)O)cn3-c2nc(N)c(F)cc2F)C/C1=N\OCc1ccccc1` (configuration not stated) has an MIC [1] of 32 µg/mL (≈ 57.8 µM), an MIC (Pseudomonas aeruginosa [2]) of 8 µg/mL (≈ 14.5 µM) and an MIC (Escherichia coli [3]) of 128 µg/mL (≈ 231 µM). For the same compound, the MIC [4] was 32 µg/mL (≈ 57.8 µM), the MIC (Enterococcus faecalis [5]) was 16 µg/mL (≈ 28.9 µM) and the MIC (Klebsiella pneumoniae [6]) was 128 µg/mL (≈ 231 µM). For the same compound, the MIC (Escherichia coli [7]) was 128 µg/mL (≈ 231 µM), the MIC (Klebsiella pneumoniae [8]) was 128 µg/mL (≈ 231 µM) and the MIC (Pseudomonas aeruginosa [9]) was 32 µg/mL (≈ 57.8 µM). It also gave an MIC (Staphylococcus aureus [10]) of 0.25 µg/mL (≈ 0.452 µM), an MIC (Escherichia coli [11]) of 0.5 µg/mL (≈ 0.903 µM) and an MIC [12] of 32 µg/mL (≈ 57.8 µM). It also gave an MIC (Klebsiella pneumoniae [13]) of 64 µg/mL (≈ 116 µM), an MIC (Escherichia coli [14]) of 8 µg/mL (≈ 14.5 µM) and an MIC (Staphylococcus aureus [15]) of 0.015 µg/mL (≈ 0.0271 µM). The MIC (Staphylococcus aureus [16]) was 128 µg/mL (≈ 231 µM), the MIC (Enterococcus faecium [17]) was 16 µg/mL (≈ 28.9 µM) and the MIC (Klebsiella pneumoniae [18]) was 32 µg/mL (≈ 57.8 µM). It also gave an MIC (Staphylococcus aureus [19]) of 64 µg/mL (≈ 116 µM), an MIC (Klebsiella pneumoniae [20]) of 128 µg/mL (≈ 231 µM) and an MIC (Enterococcus faecalis [21]) of 16 µg/mL (≈ 28.9 µM). For the same compound, the MIC [22] was 32 µg/mL (≈ 57.8 µM), the MIC (Enterococcus faecalis [23]) was 8 µg/mL (≈ 14.5 µM) and the MIC (Pseudomonas aeruginosa [24]) was 32 µg/mL (≈ 57.8 µM). The MIC (Pseudomonas aeruginosa [36]) was 32 µg/mL (≈ 57.8 µM), the MIC (Staphylococcus aureus [25]) was < 0.008 µg/mL and the MIC (Streptococcus pneumoniae) was 16 µg/mL (≈ 28.9 µM). It also gave an MIC (Staphylococcus aureus [26]) of 0.25 µg/mL (≈ 0.452 µM), an MIC [27] of 16 µg/mL (≈ 28.9 µM) and an MIC (Pseudomonas aeruginosa [28]) of 32 µg/mL (≈ 57.8 µM). For the same compound, the MIC [29] was 64 µg/mL (≈ 116 µM), the MIC [30] was 3.81 µg/mL (≈ 6.88 µM) and the MIC (Pseudomonas aeruginosa [31]) was 32 µg/mL (≈ 57.8 µM). For the same compound, the MIC (Klebsiella pneumoniae [32]) was 128 µg/mL (≈ 231 µM), the MIC (Klebsiella pneumoniae [33]) was 128 µg/mL (≈ 231 µM) and the MIC (Enterococcus faecium [34]) was 128 µg/mL (≈ 231 µM). For the same compound, the MIC (Escherichia coli [35]) was 128 µg/mL (≈ 231 µM).

Work on `C[C@H]1COc2c(N3CCN(C)CC3)c(F)cc3c(=O)c(C(=O)O)cn1c23.C[C@H]1COc2c(N3CCN(C)CC3)c(F)cc3c(=O)c(C(=O)O)cn1c23.O` [LEVOFLOXACIN] yielded an MIC [1] of 64 µg/mL, an MIC (Escherichia coli [3]) of 8 µg/mL and an MIC [4] of 2 µg/mL. For the same compound, the MIC (Enterococcus faecalis [5]) was 32 µg/mL, the MIC (Klebsiella pneumoniae [6]) was 8 µg/mL and the MIC (Escherichia coli [7]) was 4 µg/mL. It also gave an MIC (Klebsiella pneumoniae [8]) of 8 µg/mL, an MIC (Staphylococcus aureus [10]) of 0.125 µg/mL and an MIC (Escherichia coli [11]) of 0.125 µg/mL. It also gave an MIC [12] of 1 µg/mL, an MIC (Klebsiella pneumoniae [13]) of 4 µg/mL and an MIC (Escherichia coli [14]) of 2 µg/mL. It also gave an MIC (Staphylococcus aureus [15]) of 0.25 µg/mL, an MIC (Staphylococcus aureus [16]) of 8 µg/mL and an MIC (Enterococcus faecium [17]) of 1 µg/mL. For the same compound, the MIC (Staphylococcus aureus [19]) was 64 µg/mL, the MIC (Klebsiella pneumoniae [20]) was 64 µg/mL and the MIC (Enterococcus faecalis [21]) was 64 µg/mL. The MIC [22] was 64 µg/mL, the MIC (Enterococcus faecalis [23]) was 16 µg/mL and the MIC (Staphylococcus aureus [25]) was 0.125 µg/mL. For the same compound, the MIC (Staphylococcus aureus [26]) was 0.5 µg/mL, the MIC [27] was 32 µg/mL and the MIC [29] was 128 µg/mL. It also gave an MIC [30] of 0.25 µg/mL, an MIC (Klebsiella pneumoniae [32]) of 16 µg/mL and an MIC (Klebsiella pneumoniae [33]) of 16 µg/mL. It also gave an MIC (Enterococcus faecium [34]) of 128 µg/mL and an MIC (Escherichia coli [35]) of 4 µg/mL.
